Measured values: US9139842B2, “Methods and compositions for targeting sequences of interest to the chloroplast” (PIONEER HI-BRED INTERNATIONAL, INC., priority 2010, dated 2015)
Where a chain is given by its changes, count along the chain named.

Experiments:
maize leaf chloroplasts = experiment: Agro-infiltration of maize leaves with DsRed2 fusions, fluorescence microscopy; assay type: cell-based, Zea mays; conditions: Example 16, assayed as described in Example 4
From the text: A vector was constructed in which the portion of the maize HPPD (SEQ ID NO: 9) gene coding for the N-terminal 50 amino acids was fused to the gene coding for Discosoma sp. red fluorescence protein 2 (DsRed2) and inserted into a binary expression vector under control of the maize Rubisco activase promoter (Liu et al. (1996) Plant Physiol. 112(1): 43-51) and terminated with the Solanum tuberosum proteinase inhibitor II (pinII) terminator region (An et al. (1989) Plant Cell 1:115-122) with a hygromycin selection cassette. Both genes are between left and right border sequences from Agrobacterium.
A positive control vector was identical to the vector having the N-terminal 50 amino acids of maize HPPD described above except that the HPPD CTP was removed and the DsRed2 insert was fused to the chloroplast targeting peptide of Zea maize rubisco activase, while a negative control was DsRed2 with no targeting sequence. […] Agro-infiltration is a well described method (Kapila et. al. (1997) Plant Science, 122:101-108) of introducing an Agrobacterium cell suspension to plant cells of intact tissues so that reproducible infection and subsequent plant derived trans-gene expression may be measured or studied.
Leaves of 3-week old maize seedlings were infiltrated with the Agrobacterium, and examined by fluorescence microscopy two days later (Nikon Eclipse 80i, DsRed filter set). […]

sorghum leaves plastids = experiment: Agro-infiltration of sorghum leaves with DsRed fusions; assay type: cell-based
[1] = test system: G. max leaf cell chloroplasts; experiment: Transient expression of Gm HPPD-AcGFP fusion proteins in soy leaf discs; assay type: cell-based, Glycine max
From the text: Transient expression experiments indicate that the long HPPD protein (SEQ ID NO: 57) is imported to chloroplasts, while the short protein (SEQ ID NO: 59) remains in the cytosol. Plant expression cassettes were constructed fusing portions of the N terminus of Gm HPPD to an Aequorea coerulescens green fluorescent protein 1 (AcGFP1). One fusion contained amino acid residues 1-86 of the long Gm HPPD protein. Another contained residues 1-44 of the short HPPD protein (this corresponds to residues […] of the long protein). These cassettes were incorporated into binary vectors which also contained an untargeted DsRed2 expression cassette and introduced into A. tumefaciens strain AGL 1 and then used to infect leaf discs of G. max as described in Example 3 of U.S. Utility application Ser. No. 13/209,017, now issued U.S. Pat. No. 8,993,837, entitled “Chimeric Promoter and Methods of Use”, filed concurrently herewith and herein incorporated by reference in its entirety.

maize cell chloroplasts = experiment: Agro-infiltration of maize leaves with G. max HPPD N-terminus AcGFP1 fusions; assay type: cell-based, Zea mays; conditions: 4-week old maize seedlings, three days after infiltration
From the text: Vectors were constructed in which a portion of the gene coding for the G. max HPPD N-terminus was fused to a gene encoding Aequorea coerulescens green fluorescent protein 1 (AcGFP1) and inserted into a binary expression vector under control of the Arabidopsis Ubiquitin 10 promoter (Norris et al. (1993) Plant Mol. Biol. 21, 895-906) and terminated with the Glycine max Kunitz trypsin inhibitor 3 terminator region (NCBI accession S45092). Both genes were between left and right border sequences from Agrobacterium. One fusion contained amino acid residues 1-86 of the long Gm HPPD protein (SEQ ID NO:57). […]
A positive control vector was identical except that the AcGFP1 coding region was fused to the 6H1 synthetic chloroplast targeting peptide (U.S. Pat. No. 7,345,143), while a negative control was AcGFP1 with no targeting sequence. […] Agro-infiltration is a well described method (Kapila et. al. (1997) Plant Science, 122:101-108) of introducing an Agrobacterium cell suspension to plant cells of intact tissues so that reproducible infection and subsequent plant trans-gene expression may be measured or studied.
Leaves of 4-week old maize seedlings were infiltrated with the Agrobacterium, and examined by fluorescence microscopy three days later (Nikon Eclipse 80i, Narrow band-pass GFP filter set). […]

[2] = test system: stably transformed soybean cells; experiment: Immunogold localization of maize HPPD in stably transformed soybean leaf; assay type: cell-based, Glycine max; conditions: anti-maize HPPD antibody
From the text: Polyclonal antibodies were raised in rabbits against recombinant maize HPPD protein purified by nickel chelate affinity chromatography. Anti-HPPD antibodies were purified from serum by affinity chromatography on immobilized maize HPPD, and further purified by passage through a column of immobilized Rubisco, to remove a small fraction of antibodies that reacted with both HPPD and Rubisco. Leaf punches taken form stably transformed soybean plants expressing a gene encoding the maize HPPD protein (SEQ ID NO: 10) driven by an SCP1 synthetic promoter (U.S. Pat. No. 6,072,050) were fixed in 2% paraformaldehyde, 0.25% glutaraldehyde in 100 mM Na phosphate buffer, pH 7.0, for 3 hours at room temperature, dehydrated by passage through progressively higher concentrations of ethanol, embedded in LR White resin and cured at 55° C. for 48 hours. Sections (0.9 microns) were transferred onto Excell Adhesion glass microscope slides (Electron Microscopy Sciences). Immunolocalization was performed with the primary antibody being the double-purified anti-maize HPPD (1:200) and the secondary antibody goat anti-rabbit F(ab′) conjugated with gold particles (Aurion ultrasmall gold). Gold labeling was followed by silver enhancement (Aurion R-GENT SE-EM). […] Material was analyzed with a YAG detector for backscatter signal in a Hitachi 54800 scanning electron microscope. […]

maize HPPD = experiment: HPPD activity assay of maize HPPD variants expressed in E. coli; assay type: biochemical, Zea mays; conditions: N-terminal truncated variants of maize wild-type HPPD, single measurement
From the text: Organellar targeting sequences are usually cleaved after the peptide enters the organelle. Previous investigators (Fritze I et al. (2004) Plant Physiology 134:1388-1400; Yang C et al. (2004) Biochemistry 43: 10414-10423) have shown that native mature maize HPPD begins at either ala17 or ala23. Variants of the wild-type maize HPPD protein coding region were created with various lengths of the amino terminus removed. The sequences were expressed in E. coli and tested for activity and stability. In each case a methionine start codon was added to the truncated sequence. Proteins were designated by the position of their N-terminal amino acid (all alanines) as in SEQ ID NO: 9. All N-terminal truncated proteins retained the HPPD activity. […] Assaying HPPD activity was carried out as described in Example 1 of Provisional Application 61/401,456, filed Aug. 13, 2010, Compositions and Methods Comprising Sequences having Hydroxyphenylpyruvate Dioxygenase (HPPD) Activity, herein incorporated by reference in it entirety.

In the case of “MPPTPTTAAATGAGAAAAVTPEHAAFRLVGHRRFVRFNPRSDRFHTLAFHHVE [53 amino acid consensus sequence]”, the DsRed localization (maize leaf chloroplasts) is reported as “effectively targeted DsRed to maize plastids” and the DsRed reporter localization (sorghum leaves plastids) is reported as “efficiently targeted the DsRed reporter protein to plastids”.

In the case of “residues 42-86: residues 1-44 of the short Gm HPPD protein (42-86 of the long protein) fused to AcGFP1”, the “AcGFP green fluorescence localization” value [1] is reported as “green fluorescence is visible only in the cytoplasm” and the “AcGFP marker protein localization” value (maize cell chloroplasts) is reported as “delivered the protein to the cytosol”.

B1: maize HPPD: Maize WT HPPD (from WO1997049816 SEQ ID NO: 11), SEQ ID NO: 10 (protein)
chain: MPPTPTAAAAGAAVAAASAAEQAAFRLVGHRNFVRFNPRSDRFHTLAFHHVELWCADAASAAGRFSFGLGAPLAARSDLSTGNSAHASLLLRSGSLSFLFTAPYAHGADAATAALPSFSAAAARRFAADHGLAVRAVALRVADAEDAFRASVAAGARPAFGPVDLGRGFRLAEVELYGDVVLRYVSYPDGAAGEPFLPGFEGVASPGAADYGLSRFDHIVGNVPELAPAAAYFAGFTGFHEFAEFTTEDVGTAESGLNSMVLANNSENVLLPLNEPVHGTKRRSQIQTFLDHHGGPGVQHMALASDDVLRTLREMQARSAMGGFEFMAPPTSDYYDGVRRRAGDVLTEAQIKECQELGVLVDRDDQGVLLQIFTKPVGDRPTLFLEIIQRIGCMEKDEKGQEYQKGGCGGFGKGNFSQLFKSIEDYEKSLEAKQAAAAAAAQGS
modifications: Zea mays
With B1 the gold labeling localization [2] was “mainly in cytosol and nuclei, but also in chloroplasts”.

B2: Maize wt: wild-type maize HPPD protein (SEQ ID NO: 9) expressed in E. coli (protein)
chain: B1 chain with P2G
modifications: Zea mays
For B2, the “kcat” value (maize HPPD) was 2.77 s⁻¹.
